The values that follow come from US12673947B2 (Cytosinlab Therapeutics Co., Ltd., priority 2020, dated 2026).

In one assay the target is T1, FLT3 (Homo sapiens, UniProt P36888).
T1 construct: purchased Carna 08-145
T1 sequence (P36888 27-993): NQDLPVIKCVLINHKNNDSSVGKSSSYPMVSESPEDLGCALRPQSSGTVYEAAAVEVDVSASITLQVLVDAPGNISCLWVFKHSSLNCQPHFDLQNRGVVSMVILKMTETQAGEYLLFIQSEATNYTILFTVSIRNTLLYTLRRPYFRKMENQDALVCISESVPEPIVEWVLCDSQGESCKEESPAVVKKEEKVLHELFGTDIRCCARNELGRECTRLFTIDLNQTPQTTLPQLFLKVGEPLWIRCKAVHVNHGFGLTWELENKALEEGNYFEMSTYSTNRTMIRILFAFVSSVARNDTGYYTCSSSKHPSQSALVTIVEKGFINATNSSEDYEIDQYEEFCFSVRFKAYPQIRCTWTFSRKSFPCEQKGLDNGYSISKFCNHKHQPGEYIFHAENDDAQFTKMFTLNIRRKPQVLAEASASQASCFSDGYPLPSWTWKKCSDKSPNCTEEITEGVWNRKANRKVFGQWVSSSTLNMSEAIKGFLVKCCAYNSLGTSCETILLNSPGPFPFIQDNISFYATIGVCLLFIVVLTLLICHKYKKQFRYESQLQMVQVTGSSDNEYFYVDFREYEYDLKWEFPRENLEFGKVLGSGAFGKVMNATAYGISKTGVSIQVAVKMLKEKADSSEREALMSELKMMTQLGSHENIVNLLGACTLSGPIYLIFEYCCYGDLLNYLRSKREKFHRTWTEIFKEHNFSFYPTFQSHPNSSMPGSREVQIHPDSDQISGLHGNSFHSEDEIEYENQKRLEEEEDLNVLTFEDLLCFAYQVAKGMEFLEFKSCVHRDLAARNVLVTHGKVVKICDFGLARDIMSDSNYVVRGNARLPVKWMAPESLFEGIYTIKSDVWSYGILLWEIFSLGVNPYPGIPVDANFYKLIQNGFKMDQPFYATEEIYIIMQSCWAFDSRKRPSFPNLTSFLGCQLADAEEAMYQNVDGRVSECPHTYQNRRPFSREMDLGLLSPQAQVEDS
Briefly: FLT3 kinase in vitro inhibitory activity experiment (Caliper mobility shift, conversion rate). It counts as biochemical. To be noted: IC50 class, read-out: Enzyme activity FLT3. The protocol: Biological Test Example 1: FLT3 Kinase In Vitro Inhibitory Activity Experiment
Centrifuge (manufacturer: Eppendorf, model: 5430), microplate reader (manufacturer: Perkin Elmer, model: Caliper EZ Reader II), Echo 550 (manufacturer: Labcyte, model: Echo 550)
1. Kinase Reaction Process
• (1) 1×Kinase buffer was prepared. • (2) Preparation of the serial compound dilutions: the initial stock (the concentration of the tested compound was 1 μM) was diluted by 3-fold into 10 concentrations, and was single-well detected. The compounds were series diluted to solutions of 10 different concentration (100-folds final concentration) in 384-well plates. 250 nl of solution was transferred to each well of 384-well plate by Echo550. 100% DMSO (250 nl) was added to negative control wells and positive control wells respectively. • (3) Kinase solution (2.5 times final concentration) was prepared with 1×Kinase buffer. • (4) 10 μL of kinase solution (2.5 times final concentration) was added to compound wells and positive control wells respectively: 1×Kinase buffer (10 μL) was added to the negative control wells. • (5) The solution was centrifuged at 1000 rpm for 30 seconds, shaked and mixed, and incubated at room temperature for 10 minutes. • (6) The mixed solution of ATP and Kinase substrate 2 (25/15 times final concentration) was prepared with 1×Kinase buffer. • (7) 15 μL of mixed solution ATP and Kinase substrate 2 (25/15 times final concentration) was added to initiated the reaction. • (8) 384 well plate was centrifuged at 1000 rpm for 30 seconds, shaked and mixed, then incubated at room temperature for 30 minutes. • (9) Stop solution (30 μL) was added to stop kinase reaction, and the solution was centrifuged at 1000 rpm for 30 seconds, shaked and mixed. • (10) The conversion rate was read with Caliper EZ Reader II. 2. Data Analysis Formula for Calculation
Wherein: Conversion %_sample is the reading of the sample conversion; Conversion %_min: negative control well.

Another assay relates to MV4;11 cells. The assay can be described thus: MV4;11 in vitro inhibition of proliferation assay (CellTiter-Glo, 72 hours). It counts as cell-based. To be noted: Homo sapiens, MV4-11, 72 h, IC50 class, read-out: Inhibitory activity of cell proliferation MV4;11. An excerpt:
Biological Test Example 2: MV4;11 In Vitro Inhibition of Proliferation Assay
The MV4;11 cell lines were purchased from the cell bank of the Chinese Academy of Sciences, IMDM medium (Gibco, catalog number 12440), fetal bovine serum (Gibco, catalog number 10099141C), penicillin-streptomycin antibiotics (Gibco, catalog number 15140122), DMSO (Sigma, catalog number D2650), Celltiter-Glo kit (CTG) (Promega, catalog number G7573), 384-well clear flat-bottom black cell culture plate (Corning, catalog number 3764), D300e digital dispenser (Tecan, catalog number D300e), SpectraMax i3x microplate reader (MOLECULAR DEVICES, catalog number i3x)
MV4;11 cell was cultivated in IMDM, 10% fetal bovine serum, 1% penicillin-streptomycin antibiotics, and cell density was kept less than 1.0*10E6 cells per ml to ensure that it was always in logarithmic growth phase. Cell viability was greater than 95%.
The compounds to be tested was diluted by 3 times from 10 uM with DMSO to 9 concentrations. 60 nl diluted compound was added to the cell culture plate and three duplicates were set up.
The prepared MV4;11 cell suspension was added to the 384-well plate, and 20 microliters of cell suspension was added per well, i.e., each well contained 2000 MV4;11 cells, of which the final concentration of DMSO was 0.3%. The cell culture plate was placed in 37° C. and incubated in a 5% carbon dioxide incubator for 72 hours.
20 μL of Promega CellTiter-Glo reagent was added to per well, and the plate was incubated at room temperature for 10 minutes when the luminescence signals were stable. SpectraMax i3x microplate reader was used to read signals.
The original data was converted into inhibition rate, and the IC50 value (half inhibition concentration) of the compound was determined by fitting the nonlinear four-parameter curve.

As for `CCc1nc2c(N)ncc(-c3ccc(N4CCC5(CC4)CN(C)C5)c(OC)c3)c2nc1NC1CCOCC1` [Compound 33], the IC50 on FLT3 was no more than 10 nM; in the assay on MV4;11 cells, 10 to 100 nM.

As to `CCc1nc2c(N)ncc(-c3ccc(N4CCC(N5CCNCC5)CC4)c(OC)c3)c2nc1NC1CCOCC1` [Compound 35], the IC50 on FLT3 was no more than 10 nM; in the assay with MV4;11 cells, 10 to 100 nM.

On to `CCc1nc2c(N)ncc(-c3ccc(N4CCN(C5CCN(C)CC5)CC4)c(OC)c3)c2nc1NC1CCOCC1` [Compound 36], for which the figures for the IC50 at FLT3 and in the assay with MV4;11 cells were no more than 10 nM and 10 to 100 nM, respectively.

Turning to `CCc1nc2c(N)ncc(-c3ccc(N4CCN(C)CC4)c(OC)c3)c2nc1NC1CCOCC1` [Compound 37], the IC50 on FLT3 was no more than 10 nM; in the assay with MV4;11 cells it was 10 to 100 nM.

Take `CCc1nc2c(N)ncc(-c3ccc(N4CCOCC4)c(OC)c3)c2nc1NC1CCOCC1` [Compound 38]: the IC50 on FLT3 was no more than 10 nM; in the assay with MV4;11 cells, 10 to 100 nM.

With `CCc1nc2c(N)ncc(-c3ccc(N4CCC(O)CC4)c(OC)c3)c2nc1NC1CCOCC1` [Compound 39], the IC50 is no more than 10 nM at FLT3 and 10 to 100 nM in the assay with MV4;11 cells.

Turning to `CCc1nc2c(N)ncc(-c3cccc(CN4CCC(N5CCN(C)CC5)CC4)c3)c2nc1NC1CCOCC1` [Compound 43, 3-ethyl-8-(3-((4-(4-methylpiperazine-1-yl)piperidine-1-yl)methyl)phenyl)-N2-(tetrahydro-2H-pyran-4-yl)pyrido[3,4-b]pyrazine-2,5-diamine], the IC50 lay in the range of 10 to 100 nM on FLT3 and 100 to 500 nM in the assay with MV4;11 cells.

As to `CCc1nc2c(N)ncc(-c3ccc(CN4CCC(N5CCN(C)CC5)CC4)c(OC)c3)c2nc1NC1CCOCC1` [Compound 44], the IC50 on FLT3 was 10 to 100 nM; with MV4;11 cells, greater than 500 nM.

`CCc1nc2c(N)ncc(-c3ccc(N4CCC(CN5CCN(C)CC5)CC4)c(OC)c3)c2nc1NC1CCOCC1` [Compound 45, 3-ethyl-8-(3-methoxy-4-(4-((4-methylpiperazine-1-yl)methyl)piperidine-1-yl)phenyl)-N2-(tetrahydro-2H-pyran-4-yl)pyridino[3,4-b]pyrazine-2,5-diamine]: the IC50 at FLT3 is no more than 10 nM; in the assay with MV4;11 cells it was 10 to 100 nM.

Regarding `CCc1nc2c(N)ncc(-c3ccc(N4CCC(N5CCN(C)CC5)C4)c(OC)c3)c2nc1NC1CCOCC1` (centres unmarked) [Compound 46], the IC50 at FLT3 was no more than 10 nM; in the assay with MV4;11 cells, 10 to 100 nM.

Take `CCc1nc2c(N)ncc(-c3ccc(N4CCC(N(C)CCN(C)C)CC4)c(OC)c3)c2nc1NC1CCOCC1` [Compound 48]: the figures for the IC50 at FLT3 and with MV4;11 cells were no more than 10 nM and 10 to 100 nM, respectively.

`CCc1nc2c(N)ncc(-c3cnn(C4CCNCC4)c3)c2nc1NC1CCOCC1` [Compound 58]: the IC50 at FLT3 was no more than 10 nM; in the assay with MV4;11 cells, 10 to 100 nM.

As to `CCc1nc2c(N)ncc(-c3ccc(N4CCC(N5CCN(C)CC5)CC4)c(OC)c3)c2nc1N[C@H]1CC[C@H](O)CC1` [Compound 65], the IC50 at FLT3 is no more than 10 nM; in the assay on MV4;11 cells, 10 to 100 nM.

Consider `CCc1nc2c(N)ncc(-c3ccc(N4CCC(N5CCN(C)CC5)CC4)c(OC)c3)c2nc1NC1CCN(C)CC1` [Compound 66], for which the figures for the IC50 at FLT3 and in the assay on MV4;11 cells were no more than 10 nM and 10 to 100 nM, respectively.

As to `CCc1nc2c(N)ncc(-c3ccc(N4CCC(N5CCN(C)CC5)CC4)c(OC)c3)c2nc1NC1CCC(O)C1` (centres unmarked) [Compound 67], the figures for the IC50 on FLT3 and in the assay on MV4;11 cells were no more than 10 nM and 10 to 100 nM, respectively.

Consider `CCc1nc2c(N)ncc(-c3ccc(N4CCC(N5CCN(C)CC5)CC4)c(OC)c3)c2nc1NCC(C)(C)O` [Compound 68], for which the IC50 at FLT3 was no more than 10 nM; with MV4;11 cells, 10 to 100 nM.

Consider `CCc1nc2c(N)ncc(-c3ccc(N4CCC(N5CCN(C)CC5)CC4)c(OC)c3)c2nc1N[C@H]1CC[C@H](O)C1` [Compound 69], for which the figures for the IC50 at FLT3 and with MV4;11 cells were no more than 10 nM and 100 to 500 nM, respectively.

`CCc1nc2c(N)ncc(-c3ccc(N4CCC(N5CCN(C)CC5)CC4)c(OC)c3)c2nc1N[C@@H]1CC[C@@H](O)C1` [Compound 70]: the IC50 on FLT3 and with MV4;11 cells was no more than 10 nM throughout.

For `CCc1nc2c(N)ncc(-c3ccc(N4CCC(N5CCN(C)CC5)CC4)c(OC)c3)c2nc1N[C@H]1CC[C@@H](O)C1` [Compound 71], the IC50 was no more than 10 nM on FLT3 and 10 to 100 nM with MV4;11 cells.

`CCc1nc2c(N)ncc(-c3ccc(N4CCC(N5CCN(C)CC5)CC4)c(OC)c3)c2nc1N[C@@H]1CC[C@H](O)C1` [Compound 72]: the IC50 at FLT3 and in the assay with MV4;11 cells was no more than 10 nM throughout.

Take `CCc1nc2c(N)ncc(-c3ccc(N4CCC(N5CCN(C)CC5)CC4)c(OC)c3)c2nc1NC(C)C` [Compound 77]: the IC50 is no more than 10 nM on FLT3 and 10 to 100 nM in the assay with MV4;11 cells.

Regarding `CCc1nc2c(N)ncc(-c3ccc(N4CCC(N5CCN(C)CC5)CC4)c(OC)c3)c2nc1NC1CCCC1O` (centres unmarked) [Compound 78], the IC50 on FLT3 is no more than 10 nM; in the assay with MV4;11 cells, 10 to 100 nM.

Turning to `CCc1nc2c(N)ncc(-c3ccc(N4CCC(N5CCN(C)CC5)CC4)c(OC)c3)c2nc1NC1CCOC1` (centres unmarked) [Compound 79], the IC50 is no more than 10 nM at FLT3 and 10 to 100 nM in the assay on MV4;11 cells.

`CCc1nc2c(N)ncc(-c3ccc(N4CCC(N5CCN(C)CC5)CC4)c(OC)c3)c2nc1NC1CCCOC1` (centres unmarked) [Compound 83]: the IC50 on FLT3 was no more than 10 nM; in the assay on MV4;11 cells it was 10 to 100 nM.

Take `CCc1nc2c(N)ncc(-c3ccc(N4CCC(N5CCN(C)CC5)CC4)c(OC)c3)c2nc1NCC1CCOCC1` [Compound 85]: the IC50 at FLT3 is no more than 10 nM; with MV4;11 cells, 10 to 100 nM.

On to `CCc1nc2c(N)ncc(-c3ccc(N4CCC(N5CCN(C)CC5)CC4)c(OC)c3)c2nc1NC1CCCC1` [Compound 92], for which the IC50 is no more than 10 nM at FLT3 and 10 to 100 nM in the assay with MV4;11 cells.

With `[2H]C([2H])([2H])N1CCN(C2CCN(c3ccc(-c4cnc(N)c5nc(CC)c(NC6CCOCC6)nc45)cc3OC)CC2)CC1` [Compound 121], the IC50 is no more than 10 nM at FLT3 and 10 to 100 nM in the assay on MV4;11 cells.

For `CCc1nc2c(N)ncc(-c3cnn(C4CCN(C5CCN(C)CC5)CC4)c3)c2nc1NC1CCC(O)C1` (centres unmarked) [Compound 134, 3-((5-amino-3-ethyl-8-(1-(1′-methyl-[1,4′-bipiperidine]-4-yl)-1H-pyrazol-4-yl)pyridino[3,4-b]pyrazine-2-yl)amino)cyclopentan-1-ol], the IC50 on FLT3 is no more than 10 nM; in the assay on MV4;11 cells it was 10 to 100 nM.
